Paper PMC11582173, “Synthesis, cytotoxicity, anti-inflammatory, anti-metastatic and anti-oxidant activities of novel chalcones incorporating 2-phenoxy-N-arylacetamide and thiophene moieties: induction of apoptosis in MCF7 and HEP2 cells” (Naunyn-Schmiedeberg's Archives of Pharmacology, 2024)
“And” between values parts separate entries of the source, which are not always exact repeats. Identical values can stand only once.

Legend:
Type in all cases: cell-based, human
[1] = tested on: BAX; assay: ELISA, BAX concentration
Procedure: (§1) The concentrations of matrix metalloproteinase-2 (MMP2), matrix metalloproteinase-9 (MMP9), Bcl2, BAX, P53, Malondialdehyde (MDA), Glutathione (GSH), caspase 8, caspase 9 and IL-6 were measured quantitatively in 5c treated MCF7 and HEP2 cells using ELISA (Enzyme-Linked Immunosorbent Assay) (Table 4). Gelatinases are a collective word for MMP-2 and MMP-9, where MMP-2 is gelatinase-A and MMP-9 is gelatinase-B. Solid tumor invasion, metastasis, and angiogenesis have long been linked to gelatinases (Das et al. [2021]). […] Bcl2 is a crucial protein that targets apoptosis inhibition. It is regarded as a predictive biomarker or therapeutic target in the diagnosis of cancer due to its broad expression in a variety of cancers (Porter et al. [2009]). […] The pro-apoptotic protein BAX permeabilizes the mitochondrial outer membrane by changing from a cytosolic monomer to a hazardous oligomer triggering the apoptosis process (Fulda and Debatin [2006]). […] P53 transcription factor performs an essential tumor suppressor role by coordinating a wide range of physiological responses, including DNA repair, cell cycle arrest, cellular senescence, cell death, cell differentiation, and metabolism (Liebl and Hofmann [2021]). It was activated in MCF7 and HEP2-treated cells with values (4.28 and 3.109 ng/mL), respectively, compared to their controls (3.44 and 2.06 ng/mL). […]

[2] = tested on: IL-6; assay: ELISA, IL-6 concentration
Procedure: as §1

[3] = tested on: HEP2 cells; assay: Flow cytometric analysis of cell cycle, HEP2; conditions: HEP2, IC50 of 5c, 48 h
Procedure: In the G0-G1 stage, the percentage of 5c-treated cells declined to 55.4% as opposed to 57.6% of untreated control cells. It was found in a previous work that lutein-induced G2/M phase arrest in A549 and PC-9 cells (Di et al. [2019]).
In DMEM-supplemented media, cells were plated in 12-well plates at a cell density of 6–8×10^5 per well. After twenty-four hours, cells were cultured for an additional 48 hours with the IC50 of the target compound. The untreated cells were used as a negative control. After 48 h of incubation, the treated cells were centrifuged at 1,200 rpm and 4 °C for 10 min. After discarding the supernatant, the wells were then given a single phosphate-buffered saline (PBS) wash and then centrifuged for 10 min at 1,200 rpm. Trypsin/EDTA was used to collect the cells, and after one PBS wash, they were resuspended in 0.5 mL of 0.05% Triton X-100 for 10 min at room temperature. Each cell suspension was stained by being given 1 mL of 50 µg/mL propidium iodide (PI) to be left at room temperature in the darkness for 20 minutes. The analysis of the cell cycle was done by a flow cytometer (Becton Dickenson (BD) FACSCalibur, USA) (Michalkova et al. [2022]).

[4] = tested on: Caspase 8; assay: ELISA, Caspase 8 concentration
Procedure: as §1

COc1ccc(NC(=O)COc2ccc(C=CC(=O)c3cccs3)cc2)cc1 [Compound 5c, N-(4-Methoxyphenyl)-2-(4-(3-oxo-3-(thiophen-2-yl)prop-1-en-1-yl)phenoxy)acetamide]
BAX concentration ([1]; 5c treated HEP2 cells, untreated 1261.8±7.38): 1342.8 pg/mL and 1342.8 ± 12.7 pg/mL | BAX concentration ([1]; 5c treated MCF7 cells, untreated 946.30±12.7): 1099.36 pg/mL and 1099.36 ± 12.8 pg/mL | IL-6 concentration ([2]; 5c treated HEP2 cells, untreated 85.24±1.16): 54.27 pg/mL and 54.27 ± 5.509 pg/mL | IL-6 concentration ([2]; 5c treated MCF7 cells, untreated 100.47±0.439): 74.68 pg/mL and 74.68 ± 0.979 pg/mL | Percentage of DNA in G2-M phase ([3]; untreated control 2.205±0.10607): 3.56% and 3.565±0.1485% | Percentage of DNA in S phase ([3]; untreated control 40.095±0.36062): 40.96% and 40.96±0.08485% | Percentage of DNA in G0-G1 phase ([3]; untreated control 57.67±0.21213): 55.4% and 55.475±0.233% | Caspase8 concentration ([4]; 5c treated HEP2 cells, untreated 0.187±0.025): 2.27 ng/mL and 2.27 ± 0.142 ng/mL | Caspase8 concentration ([4]; 5c treated MCF7 cells, untreated 0.162±0.0203): 2.13 ng/mL and 2.13 ± 0.268 ng/mL
